# Reference: the OligoGym collection
# Bases are written 5' to 3'; sugars and linkages follow in the same order, as letters with counts (s phosphorothioate, o phosphodiester; PS: all linkages phosphorothioate). C may stand for cytosine or 5-methylcytosine; the collection does not tell. l = locked nucleic acid (LNA); d = 2'-deoxy (DNA)
# Molecular target: HIF1A
# Assay: HeLa, 100 nM transfected, 24 h, mean of 3
# Conditions: ASO
row,Sequence,caspase activation (% of PBS control)
1,"GTTACTGCCTTCTTAC (sugars lldllddddddllddl, PS)",356
2,"CAAGCATCCTGTA (sugars l2 d1 l1 d6 l3, PS)",119
3,"TGGCAAGCATCCTGTA (sugars l5 d8 l1 d1 l1, PS)",401
4,"ACTGCCTTCTTAC (sugars l1 d10 l2, PS)",120
5,"TGGCAAGCATCCT (sugars l4 d8 l1, PS)",471
6,"TGGCAAGCATCCTGTA (sugars llldlddddddllldl, PS)",413
7,"TGGCAAGCATCCTGTA (sugars ldlddddddddldldl, PS)",206
8,"TGGCAAGCATCCTGTA (sugars llldlddddddldlll, PS)",428
9,"TGGCAAGCATCCT (sugars l3 d8 l2, PS)",217
10,"GCAAGCATCCTGT (sugars l1 d2 l1 d7 l2, PS)",151
11,"GTTACTGCCTTCTTAC (sugars l1 d2 l2 d7 l4, PS)",361
12,"TACTGCCTTCTTA (sugars l3 d8 l2, PS)",317
13,"TGGCAAGCATCCTGTA (sugars ldldlddddddddddl, PS)",204
14,"TGGCAAGCATCCTGTA (sugars l4 d8 l1 d2 l1, PS)",429
15,"ACTGCCTTCTTAC (sugars l4 d6 l1 d1 l1, PS)",393
16,"GTTACTGCCTTCTTAC (sugars l1 d2 l2 d8 l3, PS)",248
17,"TGGCAAGCATCCTGTA (sugars l4 d7 l2 d2 l1, PS)",528
18,"GTTACTGCCTTCTTAC (sugars l4 d8 l1 d2 l1, PS)",209
19,"GCAAGCATCCTGT (sugars l2 d9 l2, PS)",285
20,"TGGCAAGCATCCT (sugars l1 d2 l1 d6 l3, PS)",112

row,Sequence,caspase activation (% of PBS control)
1,"GTTACTGCCTTCTTAC (sugars ldldlddddddddddl, PS)",175
2,"TGGCAAGCATCCT (sugars l1 d1 l2 d8 l1, PS)",327
3,"GTTACTGCCTTCTTAC (sugars lddllddddddllddl, PS)",268
4,"GTTACTGCCTTCTTAC (sugars ldlllddddddlldll, PS)",410
5,"GTTACTGCCTTCTTAC (sugars ldlldddddddldddl, PS)",213
6,"GTTACTGCCTTCTTAC (sugars ldllldddddddlddl, PS)",461
7,"GTTACTGCCTTCTTAC (sugars llldlddddddldddl, PS)",272
8,"TGGCAAGCATCCTGTA (sugars lldllddddddlldll, PS)",493
9,"TGGCAAGCATCCTGTA (sugars l2 d1 l2 d6 l5, PS)",477
10,"TGGCAAGCATCCTGTA (sugars l4 d10 l2, PS)",396
11,"TGGCAAGCATCCTGTA (sugars lldllddddddllddl, PS)",354
12,"TGGCAAGCATCCTGTA (sugars lldlldddddddlldl, PS)",362
13,"GGCAAGCATCCTG (sugars l2 d8 l3, PS)",657
14,"GTTACTGCCTTCTTAC (sugars l2 d9 l5, PS)",328
15,"GGCAAGCATCCTG (sugars ldllddddddldl, PS)",370
16,"TACTGCCTTCTTA (sugars ldllddddddldl, PS)",317
17,"GTTACTGCCTTCTTAC (sugars ldldldddddddlddl, PS)",220
18,"GTTACTGCCTTCT (sugars l1 d1 l1 d8 l2, PS)",123
19,"GGCAAGCATCCTG (sugars l2 d1 l1 d6 l3, PS)",502
20,"GTTACTGCCTTCTTAC (sugars lddldddddddllldl, PS)",227
